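Five concentrations, 48 hours, 96-well plates. GI50 marks 50% less growth. TGI: concentration producing complete growth inhibition.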
Columns and labels:
Test in all cases: NCI anticancer screen, dose series, 48 h
[1] = tested on: U251 CNS
[2] = tested on: HOP-92 NSCLC
[3] = tested on: COLO 205 colon
[4] = tested on: RPMI-8226 leukemia
[5] = tested on: SNB-19 CNS
[6] = tested on: NCI/ADR-RES ovarian
[7] = tested on: SNB-75 CNS
[8] = tested on: K-562 leukemia
[9] = tested on: HT29 colon
[10] = tested on: 786-0 renal
[11] = tested on: UACC-257 melanoma
[12] = tested on: NCI-H23 lung
[13] = tested on: EKVX NSCLC
[14] = tested on: SF-539 CNS
[15] = tested on: T-47D breast
[16] = tested on: HCT-15 colon
[17] = tested on: HCT-116 colon
[18] = tested on: UACC-62 melanoma
[19] = tested on: SR leukemia
[20] = tested on: NCI-H522 lung
[21] = tested on: SF-295 CNS
[22] = tested on: A498 renal
[23] = tested on: CAKI-1 renal
[24] = tested on: MDA-MB-435
[25] = tested on: IGROV1 ovarian
[26] = tested on: KM12 colon
[27] = tested on: SN12C renal
[28] = tested on: LOX IMVI melanoma
[29] = tested on: RXF 393 renal
[30] = tested on: SK-MEL-28 melanoma
[31] = tested on: CCRF-CEM leukemia
[32] = tested on: SF-268 CNS
[33] = tested on: ACHN renal
[34] = tested on: MDA-MB-231 breast
[35] = tested on: SK-OV-3 ovarian
[36] = tested on: SW-620 colon
[37] = tested on: DU-145 prostate
[38] = tested on: OVCAR-5 ovarian
[39] = tested on: MCF7 breast
[40] = tested on: HS 578T breast
[41] = tested on: HCC-2998 colon
[42] = tested on: UO-31 renal
[43] = tested on: NCI-H226 lung
[44] = tested on: TK-10 renal
[45] = tested on: A549 NSCLC
[46] = tested on: OVCAR-4 ovarian
[47] = tested on: M14 melanoma
[48] = tested on: OVCAR-8 ovarian
[49] = tested on: MOLT-4 leukemia
[50] = tested on: HOP-62 NSCLC
[51] = tested on: PC-3 prostate
[52] = tested on: NCI-H460 lung
[53] = tested on: SK-MEL-2 melanoma
[54] = tested on: HL-60(TB) leukemia
[55] = tested on: SK-MEL-5 melanoma
[56] = tested on: OVCAR-3 ovarian
[57] = tested on: MALME-3M melanoma

CN(C)c1nc2oc(-c3ccccc3)c(-c3ccccc3)c2c2nncn12
TGI [1]: > 100 µM
TGI [2]: > 100 µM
TGI [3]: > 100 µM
TGI [4]: > 100 µM
TGI [5]: > 100 µM
TGI [6]: > 100 µM
TGI [7]: > 100 µM
TGI [8]: > 100 µM
TGI [9]: > 100 µM
TGI [10]: > 100 µM
TGI [11]: > 100 µM
TGI [12]: > 100 µM
TGI [13]: > 100 µM
TGI [14]: > 100 µM
TGI [15]: > 100 µM
TGI [16]: > 100 µM
TGI [17]: > 100 µM
TGI [18]: > 100 µM
TGI [19]: > 100 µM
TGI [20]: > 100 µM
TGI [21]: > 100 µM
TGI [22]: > 100 µM
TGI [23]: > 100 µM
TGI [24]: > 100 µM
TGI [25]: > 100 µM
TGI [26]: > 100 µM
TGI [27]: > 100 µM
TGI [28]: > 100 µM
TGI [29]: > 100 µM
TGI [30]: > 100 µM
TGI [31]: > 100 µM
TGI [32]: > 100 µM
TGI [33]: > 100 µM
TGI [34]: > 100 µM
TGI [35]: > 100 µM
TGI [36]: > 100 µM
TGI [37]: > 100 µM
TGI [38]: > 100 µM
TGI [39]: > 100 µM
TGI [40]: > 100 µM
TGI [41]: > 100 µM
TGI [42]: > 100 µM
TGI [43]: > 100 µM
TGI [44]: > 100 µM
TGI [45]: > 100 µM
TGI [46]: > 100 µM
TGI [47]: > 100 µM
TGI [48]: > 100 µM

COc1ccc(-n2cc(-c3cc(OC)c(OC)c(OC)c3)nc2SCc2ccccc2)cc1
GI50 [1]: 43.8 µM
TGI [1]: > 100 µM
GI50 [2]: 28.9 µM
TGI [2]: > 100 µM
GI50 [3]: 49.5 µM
TGI [3]: > 100 µM
GI50 [4]: 5.5 µM
TGI [4]: > 100 µM
GI50 [5]: > 100 µM
TGI [5]: > 100 µM
GI50 [6]: 26.8 µM
TGI [6]: > 100 µM
GI50 [7]: 7.04 µM
TGI [7]: 66.8 µM
GI50 [49]: 9.03 µM
TGI [49]: > 100 µM
GI50 [8]: 9.43 µM
TGI [8]: > 100 µM
GI50 [9]: 35.6 µM
TGI [9]: > 100 µM
GI50 [10]: > 100 µM
TGI [10]: > 100 µM
GI50 [12]: > 100 µM
TGI [12]: > 100 µM
GI50 [50]: 78 µM
TGI [50]: > 100 µM
GI50 [13]: 11.6 µM
TGI [13]: > 100 µM
GI50 [14]: > 100 µM
TGI [14]: > 100 µM
GI50 [15]: 7.89 µM
TGI [15]: > 100 µM
GI50 [16]: > 100 µM
TGI [16]: > 100 µM
GI50 [51]: 8.7 µM
TGI [51]: > 100 µM
GI50 [17]: 17.5 µM
TGI [17]: > 100 µM
GI50 [18]: 42.2 µM
TGI [18]: > 100 µM
GI50 [19]: 54 µM
TGI [19]: > 100 µM
GI50 [20]: 31.5 µM
TGI [20]: > 100 µM
GI50 [21]: > 100 µM
TGI [21]: > 100 µM
GI50 [22]: > 100 µM
TGI [22]: > 100 µM
GI50 [52]: 52.6 µM
TGI [52]: > 100 µM
GI50 [23]: > 100 µM
TGI [23]: > 100 µM
GI50 [24]: > 100 µM
TGI [24]: > 100 µM
GI50 [25]: > 100 µM
TGI [25]: > 100 µM
GI50 [26]: 60 µM
TGI [26]: > 100 µM
GI50 [53]: > 100 µM
TGI [53]: > 100 µM
GI50 [27]: > 100 µM
TGI [27]: > 100 µM
GI50 [28]: 74.7 µM
TGI [28]: > 100 µM
GI50 [30]: 76.6 µM
TGI [30]: > 100 µM
GI50 [31]: 3.63 µM
TGI [31]: > 100 µM
GI50 [32]: > 100 µM
TGI [32]: > 100 µM
GI50 [54]: 10 µM
TGI [54]: > 100 µM
GI50 [33]: 78.8 µM
TGI [33]: > 100 µM
GI50 [34]: > 100 µM
TGI [34]: > 100 µM
GI50 [35]: > 100 µM
TGI [35]: > 100 µM
GI50 [36]: > 100 µM
TGI [36]: > 100 µM
GI50 [37]: > 100 µM
TGI [37]: > 100 µM
GI50 [38]: > 100 µM
TGI [38]: > 100 µM
GI50 [39]: 15.4 µM
TGI [39]: > 100 µM
GI50 [40]: > 100 µM
TGI [40]: > 100 µM
GI50 [41]: 45.5 µM
TGI [41]: > 100 µM
GI50 [55]: 8.54 µM
TGI [55]: 56.7 µM
GI50 [42]: 28 µM
TGI [42]: > 100 µM
GI50 [43]: > 100 µM
TGI [43]: > 100 µM
GI50 [56]: 47.4 µM
TGI [56]: > 100 µM
GI50 [44]: > 100 µM
TGI [44]: > 100 µM
GI50 [45]: 79.6 µM
TGI [45]: > 100 µM
GI50 [57]: > 100 µM
TGI [57]: > 100 µM
GI50 [46]: 13.3 µM
TGI [46]: > 100 µM
GI50 [47]: > 100 µM
TGI [47]: > 100 µM

Reference: PubChem BioAssay (NCI)
